Consider 2 compounds from US12215111B2, “Imidazopyridazine IL-17 inhibitor compounds” (Janssen Pharmaceutica NV, priority 2021, dated 2025).

Some results are limits rather than exact numbers.

For orientation: IC50 means the concentration at which inhibition is half-maximal. Read a low IC50 as greater potency.

In test [1] the target is T1, IL-17A(FLAG-Tagged): IL-17RA(His-Tagged) (Homo sapiens, UniProt Q16552, K93Q). As to the kind of experiment: IL-17A(FLAG-tagged):IL-17RA(His-tagged) binding disruption Eu-HTRF assay, Protocol 1. The following applies: FLAG tagged IL-17A at 2× final concentration (2.5 nM); simple average if tested more than once. An excerpt: (§1) IL-17A(FLAG-Tagged): IL-17RA(His-Tagged) Binding Disruption Eu-HTRF Assay
T1 sequence (Q16552 with tags, fused parts or gaps K93Q): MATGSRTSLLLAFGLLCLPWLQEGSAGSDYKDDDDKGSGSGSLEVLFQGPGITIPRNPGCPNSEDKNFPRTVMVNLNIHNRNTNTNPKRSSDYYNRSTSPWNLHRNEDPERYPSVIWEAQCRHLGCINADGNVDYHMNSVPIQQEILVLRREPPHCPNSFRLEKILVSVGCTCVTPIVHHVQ
(§2) An antibody directed against the FLAG tag of IL-17A (SEQ ID NO:1) is labeled with the HTRF donor chromophore (Europium-cryptate). IL-17A is present as a dimer that is “locked into” this quaternary structure due to the formation of loop-spanning […] disulfide bridges. The construct of IL-17RA used in the assay excludes the outer-membrane portion of the receptor and is fused to a C-terminal 10×His tag (SEQ ID NO:2). An antibody directed against the His tag of the IL-17RA chimera is labeled with the HTRF acceptor chromophore (“D2”). The fluorescence-resonance energy transfer (FRET) depends on the vicinity of the donor chromophore to the acceptor, and interruption of the binding between the IL-17A and IL-17RA causes the reduction/loss of FRET. Therefore, this assay allows to evaluate the compound effect on the binding IL-17A and IL-17RA by monitoring the fluorescence intensity of donor vs acceptor. The assay was run using either Protocol 1 or Protocol 2 described below.
(§3) Protocol 1: 40 nL of 2-fold serial diluted compound solution for total 22 dilution points is added into each well of a 1536-well, white, low-volume, non-binding plate (Greiner #782904), then 2 μl of FLAG tagged IL-17A at 2× final concentration (2.5 nM) in solution of PBS+0.01% Triton-X100 is added to each well. The assay plate is briefly centrifuged then incubated for 1 h at rt. A mixed solution is prepared containing 2×5 nM 10HIS×IL-17RA, 2×2.5 nM Eu-anti-FLAG (CISBIO), 2×5 nM D2-anti-HIS (CISBIO) in PBS+0.01% Triton-X100+200 mM Potassium Fluoride (Sigma 60238) and […] of mix is added to each well of the assay plate. The plate is briefly centrifuged then incubated for 2 h at rt. The HTRF intensities at the wavelength of donor (620 nm) and acceptor (665 nm) are measured using BMG Pherastar. The ratio between intensities at two wavelengths is calculated and plotted against the compound concentration and the data is fitted to a one-site competition model to yield IC50 of the compound.
(In general: Time-resolved FRET reads energy transfer from a long-lived donor to a nearby acceptor.)

In test [2] the target is T1, IL-17A(FLAG-Tagged): IL-17RA(His-Tagged). The test is described as follows: IL-17A(FLAG-tagged):IL-17RA(His-tagged) binding disruption Eu-HTRF assay, Protocol 2. The following applies: FLAG tagged IL-17A at 2× final concentration (1 nM); simple average if tested more than once.
Description: as §1, §2
as §3, with “2.” for “1:”, “nl” for “nL”, “(1” for “(2.5”, “(615” for “(620”

Test [3] relates to IL-17A-induced G-CSF production in human normal keratinocyte (NHK). As to the kind of experiment: NHK assay: IL-17A-induced G-CSF production in normal human keratinocytes. The class given is cell-based. The following applies: Homo sapiens, Keratinocyte; IL-17A 5 ng/mL, 24 h at 37° C., G-CSF by HTRF; simple average if tested more than once. In outline:
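Stimulus rhIL-17A 5 ng/mL final, premixed 1 h rt with compound; adult NHK, 5% FBS, 0.2% DMSO. Viability by CellTiter-Glo vs DMSO.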

For test [4] the following is noted: moderate-to-severe HS, seven of nine patients, open-label pilot-trial; cited from earlier work.

Take `O=C(N[C@H](c1cn2ncc(CN3C(=O)N[C@@H]4CC(F)(F)C[C@@H]43)cc2n1)C1CCC(F)(F)CC1)c1nonc1C1CC1` (single isomer, unassigned) [Example 7, 4-Cyclopropyl-N—((S)-(7-(((3aR*,6aS*)-5,5-difluoro-2-oxohexahydrocyclopenta[d]imidazol-1(2H)-yl)methyl)imidazo[1,2-b]pyridazin-2-yl)(4,4-difluorocyclohexyl)methyl)-1,2,5-oxadiazole-3-carboxamide]: the IC50 in test [1], in test [2] and in test [3] was under 4 µM in each case.

For the compound secukinumab, the “patients who achieved HiSCR” value in test [4] is 78%.
